Tests used:
p-Chk = experiment: Immunostaining of p-Chk in HaCaT cells upon UVB radiation; format: cell-based, Human; conditions: immunofluorescence
Text: FIG. 5C: Immunostaining of p-Chk in HaCaT cells upon UVB radiation with or without carnosol treatment. P-Chk was stained with green fluorescent, while nucleus was stained by DAPI. Scale indicates 20 μm.
Both human keratinocyte (HaCaT) and mouse embryonic fibroblast (MEF) cells were used, and the protein levels of γH2AX and phosphor-Chk were used as DNA damage marker. […] Similar results are observed in MEF cells as both the phosphorylation level of H2AX and Chk reduced at early stage post UVB radiation (FIG. 5B). […] To further show the protection effect of carnosol on UVB-irradiated cell, a comet assay was performed. […] Thus, carnosol ast least partially protect the DNA damage from UVB radiation.

[1] = system: intracellular ROS level in HaCaT cells; experiment: ROS measurement with CM-H2DCFDA after UVB radiation; format: cell-based, Human; conditions: for ROS level post-UVB: UVB 50 mJ/cm^2, 6 h, UVB alone 2.1-fold
Method: FIG. 2: Dose dependent effect of carnosol on UVB-induced intracellular ROS level. HaCaT cells were seeded in 96 well plate and incubated with CM-H2DCFDA dye one hour prior to UVB exposure, with or without carnosol treatment. ROS was measured at 6 h post UVB radiation with indicated concentration of carnosol treatment using ex490/em520 nm. The data represents three to five sets of independent experiments. *p<0.05 versus corresponded control group, **p<0.05 versus UV alone.
FIGS. 3A-3B: Time dependent effect of carnosol on UVB-induced intracellular ROS level. HaCaT cells were seeded in 96 well plate and CM-H2DCFDA dye was used to measure intracellular ROS level. Carnosol (20 μM) was added to cells 1 h prior to UVB exposure, and ROS level was measured at 20 min intervals post UVB. (FIG. 3A) Intracellular ROS level at 20 min intervals with or without carnosol treatment. (FIG. 3B) Statistical analysis of intracellular ROS level at 240, 480, 720 min post UVB radiation with or without carnosol (20 μM) treatment. *p<0.05 versus corresponded control group, **p<0.05 versus corresponded UV group.
(§1) UVB was generated from a Bench XX-Series UV Lamp (UVP Inc.) equipped with two 15-watt UVB tubes (UVP Inc.). The intensity of UVB was calibrated by a UVP model UVX digital radiometer (UVP Inc.) after the lamps warmed up for 5 min. For irradiating cells, the dose rate for 8 mJ/cm^2 or 50 mJ/cm^2 of UVB radiation was 0.8 or 3.8 mW/s respectively. Medium was removed before exposing the cells to UVB. After UVB radiation, fresh medium was added to the culture plates with or without drugs, and the cells were continue incubating at 37° C. with 5% CO2 until further analysis. Carnosol was disovled in DMSO and was irradiated with 50 mJ/cm^2 of UVB radiation at a dose rate of 3.8 mW/s before subjecting to cells or structure analysis using Mass Spectrum.
(§2) Carnosol (Cayman) (FIG. 1) was added to cells at indicated concentration at 1 h before exposing the cells to UVB radiation. After radiation, cells were continuously incubated with or without carnosol in the medium until further analysis.
CM-H2DCFDA (Invitrogen) was used to measure the total ROS level in cells. CM-H2DCFDA was dissolved in DMSO to a stock solution of 500 μM and diluted in PBS to final concentration of 5 μM. CM-H2DCFDA was added into cells 1 h prior to UVB exposure and the reading of fluorescence dye was recorded every 20 minutes using luminometer (Molecular devices Spectra Max M2).

[2] = system: 6-4 photoproducts (6-4PP); experiment: Quantitative measurement of 6-4 photoproducts after UVB; format: cell-based; conditions: with vs without carnosol
Text: FIG. 5F: Quantitative measurement of 6-4 photoproducts (6-4PP), with and without UVB, and with and without carnosol. *p<0.05 versus corresponded control group
There are two major forms of DNA damage caused by UVB radiation: one is the direct DNA damage which forms CPD; the other is the oxidation-caused DNA damage, which causes the formation of 6-4 PP. In order to identify which form of DNA damage is protected by carnosol, a quantitative assay to identify the production of both DNA damage products after UVB radiation with or without carnosol treatment was performed.

HaCaT cells = experiment: Cell survival analysis (Annexin V/PI flow cytometry), HaCaT; format: cell-based
Method: FIGS. 6A-6C: Carnosol protects UVB-induced cell death. Cells were exposed to UVB radiation with different dose of carnosol treatment. At indicated time point, cells were collected and Annexin V/PI apoptosis detection kit was used to detect cell apoptosis. (FIG. 6A) HaCaT cell survival rate with different concentrations (μM) of carnosol treatment at 12 h post UVB radiation. (FIG. 6B) Time dependent assay (h) in the presence or absence of carnosol treatment in HaCaT cells. (FIG. 6C) MEF cells treated with 20 μM carnosol at indicated time point (h). The error bars present the standard deviation of three sets of independent experiments. *p<0.05 versus control group; **p<0.05 versus corresponded UV group.
as §1, §2
Total cell number of 1×10^5 was used for each analysis using flow cytometer. Fluorescein isothiocyanate (FITC) conjugated-annexin V (ANXS)/propidium iodide (PI) apoptosis detection kit (BD Biosciences) were used to stain the cells through the determination of the loss of membrane phospholipid […] and membrane integrity. Cell survival rate (R) was calculated as: R=[1×10^5−number of positive stained cells]/1×10^5. Briefly, the cells were harvested by 0.25% trypsin digestion, combined with the cells floating in the medium and washed twice with cold PBS. The cells were then suspended in ANXS binding buffer (10 mM Hepes/NaOH, pH 7.4, 140 mM NaCl and 2.5 mM CaCl2). The cell suspension was mixed with 5 μL ANXS-FITC and 5 μL PI. The cell mixture was incubated for […] in dark at room temperature and the ANXS/PI double-stained cells were analyzed using a FACSort Flow Cytometer (BD Science) equipped with CellQuest software (BD Science).

For CC(C)c1cc2c(c(O)c1O)[C@@]13CCCC(C)(C)[C@@H]1C[C@@H]2OC3=O [carnosol], the “UVB-induced expression level of p-Chk in nucleus” value (p-Chk) was “significantly reduce”, the “ROS level post-UVB” value ([1]; 0.1 μM carnosol) was “not statistically significantly changed” and the “ROS level post-UVB” value ([1]; 0.5 μM carnosol) was “not statistically significantly changed”. For the same molecule, the “ROS level post-UVB” value ([1]; 10 μM carnosol) was “about 1.5 fold”, the “ROS level in the irradiated cells” value ([1]; 20 μM carnosol, 20 min to 10 h post-UVB) was “continuously reduces” and the “decrease of ROS level” value ([1]; 20 μM carnosol, 240 min after UVB) was about 30%. The “decrease of ROS level” value ([1]; 20 μM carnosol, 480 min after UVB) was about 30%, the “decrease of ROS level” value ([1]; 20 μM carnosol, 720 min after UVB) was about 30% and the “ROS level post-UVB” value ([1]; 20 μM carnosol) was about 1.3 fold. The “decrease of ROS level” value ([1]; 20 μM carnosol, immediately after UVB treatment) was 20%, the “ROS level in untreated cells” value ([1]; 20 μM carnosol, no UVB, 20 min intervals up to 12 h) was “did not statistically significant affect” and the “ROS level post-UVB” value ([1]; 30 μM carnosol) was about 1.3 fold. The ROS level ([1]; carnosol alone 0.1 μM to 30 μM, no UVB (Control), 6 h) was “no statistic significant effect”, the “6-4 PP formation after UVB radiation” value [2] was “no significant reduction” and the “cell survival with UVB radiation” value (HaCaT cells; 1 μM carnosol, 12 h post UVB) was “no statistically significant effect”. For the same molecule, the “cell survival with UVB radiation” value (HaCaT cells; 10 μM carnosol, 12 h post UVB) was “no statistically significant effect”, the “toxicity to the cells without UVB radiation” value (HaCaT cells; 30 μM carnosol) was “limited toxicity” and the cell survival (HaCaT cells; carnosol alone 1-30 μM, no UVB, 12 h) was “no significant cell survival change”. For the same molecule, the cell survival rate (HaCaT cells; dose assay, 20 μM carnosol, 12 h post UVB, UVB alone 20%) was 30%, the cell survival rate (HaCaT cells; dose assay, 30 μM carnosol, 12 h post UVB, vs 20 μM) was “no further increasing” and the cell survival rate (HaCaT cells; time assay, 20 μM carnosol, 6 h post UVB) was “no significance”. For the same molecule, the cell survival rate (HaCaT cells; time assay, 20 μM carnosol, 12 h post UVB, UVB alone 30%) was 40% and the cell survival rate (HaCaT cells; time assay, 20 μM carnosol, 24 h post UVB, UVB alone 7%) was 15%.

Source: patent publication US20190388389A1, “METHODS AND COMPOSITIONS OF CARNOSOL FOR INHIBITING UVB-INDUCED SKIN DAMAGE” (Ohio University, priority 2017, published 2019)
